Data on nine compounds can be found in ChEMBL document CHEMBL1201862, “PubChem BioAssay data set” (2004).

Assay [1] has as its target Major prion protein (Homo sapiens, UniProt P04156). The assay is classed as functional, cell-based.
Assay [2] in a line: cells.
Assay [3] addresses Endoplasmic reticulum aminopeptidase 1 (Homo sapiens, UniProt Q9NZ08). In words: inhibition of human ERAP1 enzyme activity – biochemical, cherry-pick, set 2, plate reader, dose response (AID 743314).
Assay [4] in a line: A549 cell cytotoxicity, dose response, cytotoxicity control, plate reader, cherry-pick, antagonist series (AID 743412). The format is functional, cell-based.
Assay [5] is described as follows: toxicity toward HepG2 liver cells – cell-based, plate reader, cherry-pick, antagonist series, cytotoxicity control, dose response (AID 743416). The format is functional.
Assay [6] is described as follows: blockers of bursicon-stimulated LGR2 cAMP reporter – cell-based, HEK293, CRE-luciferase reporter, cherry pick, set 2, dose response (AID 743343).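 Note: transfected cells were stimulated with diluted bursicon conditioned medium after compound addition.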 The format is functional.
The nature of assay [7]: blockade of melanocortin 4 receptor signaling – cell-based, plate reader, cherry pick, counter-screen for LGR2 antagonist project, dose response (AID 743444).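 Note: transfected HEK 293 cells stimulated with alpha-MSH peptide; potency of inhibitors of the alpha-MSH evoked signal.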 The assay is classed as functional.
A short description of assay [8]: growth inhibition of yeast DHODH-expressing 3D7 parasites – SYBR Green, dry powder samples, dose response (AID 1159570).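 Note: parasite growth measured after 72 hours of compound exposure.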 The assay is classed as functional, cell-based.
Assay [9] can be described thus: toxicity to human HepG2 hepatoma cells – cell-based, plate reader, dry powder samples, cytotoxicity control, dose response (AID 1159569).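 Note: inhibitor potency with signal falling toward the positive control level.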 The format is functional.
Assay [10] is described as follows: P. falciparum Dd2 growth inhibitors, dose response, SYBR Green, cherry-picked samples (AID 1159567). The format is functional, cell-based.
A short description of assay [11]: Dd2 malaria parasite growth inhibition potency – SYBR Green, dry powder samples, dose response (AID 1159566).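 Note: potency for growth inhibition with lower SYBR green DNA signal.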 The format is functional, cell-based.
The nature of assay [12]: growth inhibition of PfATP4-mutant resistant parasites – NITD609-resistant line, SYBR Green, dry powder, dose response (AID 1159571).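 Note: parasites synchronized at ring stage by sorbitol before testing.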 The format is functional, cell-based.
A short description of assay [13]: rise of 2N DNA cells, HeLa – IC50, dose response (AID 1117349). The assay is classed as functional, cell-based.
Assay [14] in a line: CellTiter-Glo luminescence survival assay, SW480 colon tumor line, concentration-response curve, half-maximal inhibitory concentration (AID 1117338). The format is functional. On the technique in general: Cellular ATP, detected with luciferase, serves as a proxy for viable cell number.
Assay [15] can be described thus: RKO cell viability reduction, dose response, CellTiter-Glo luminescence (AID 1117322). The assay is classed as functional.
Assay [16] can be described thus: cytotoxicity toward HCT116 cells – cell-based, CellTiter-Glo luminescence, IC50, dose response (AID 1117332). The assay is classed as functional. Conditions: HCT-116.
The nature of assay [17]: SNU-C1 cell viability reduction, dose response, CellTiter-Glo luminescence (AID 1117323). The format is functional, cell-based.
Assay [18] can be described thus: cytotoxicity toward Colo320 cells – cell-based, CellTiter-Glo luminescence, IC50, dose response (AID 1117334). The assay is classed as functional. Particulars: COLO 320.
The nature of assay [19]: rise of 4N DNA cells, HeLa – IC50, dose response (AID 1117351). The assay is classed as functional, cell-based.
The nature of assay [20]: cytotoxicity toward HT-29 cells – cell-based, CellTiter-Glo luminescence, IC50, dose response (AID 1117330). The assay is classed as functional.
Assay [21] is described as follows: Reduced DLD-1 viability, concentration-response, CellTiter-Glo luminescence (AID 1117352). The assay is classed as functional.
Assay [22] can be described thus: HCT116 cell viability decrease, GSK3B pretreatment – CellTiter-Glo, IC50, dose response (AID 1117339). The assay is classed as functional. Conditions: HCT-116.
Assay [23] has as its target Paired box protein Pax-8 (Homo sapiens, UniProt Q06710). Nature of the assay: PAX8 transcriptional activity inhibition in RMG-I – RMG-I cells, luciferase, cherry-pick, dose response (AID 687027).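 Note: luciferase reporter driven by Pax8 target thyroperoxidase promoter measured by SteadyGlo luminescence.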 The assay is classed as functional, cell-based.
Assay [24] in a line: OVCAR-3 cell viability loss – plate reader, dry powder samples, PAX8 inhibitor project, dose response (AID 743044). The assay is classed as functional, cell-based.
Assay [25] is described as follows: IGROV1 cell killing – plate reader, dry powder samples, PAX8 inhibitor project, dose response (AID 743043). The assay is classed as functional, cell-based. Particulars: IGROV-1.
Assay [26] in a line: OVCAR8 cell viability loss – plate reader, dry powder samples, PAX8 project, dose response (AID 743197). The assay is classed as functional, cell-based. Particulars: OVCAR-8.
The nature of assay [27]: toxicity to human hepatoma HepG2 cells – cell-based, cherry-picked samples, cytotoxicity control, dose response (AID 1159577). The assay is classed as functional.
Assay [28] has as its target T1, Leucine aminopeptidase (Plasmodium falciparum 3D7, UniProt Q8IL11).
T1 sequence (Q8IL11 whole entry): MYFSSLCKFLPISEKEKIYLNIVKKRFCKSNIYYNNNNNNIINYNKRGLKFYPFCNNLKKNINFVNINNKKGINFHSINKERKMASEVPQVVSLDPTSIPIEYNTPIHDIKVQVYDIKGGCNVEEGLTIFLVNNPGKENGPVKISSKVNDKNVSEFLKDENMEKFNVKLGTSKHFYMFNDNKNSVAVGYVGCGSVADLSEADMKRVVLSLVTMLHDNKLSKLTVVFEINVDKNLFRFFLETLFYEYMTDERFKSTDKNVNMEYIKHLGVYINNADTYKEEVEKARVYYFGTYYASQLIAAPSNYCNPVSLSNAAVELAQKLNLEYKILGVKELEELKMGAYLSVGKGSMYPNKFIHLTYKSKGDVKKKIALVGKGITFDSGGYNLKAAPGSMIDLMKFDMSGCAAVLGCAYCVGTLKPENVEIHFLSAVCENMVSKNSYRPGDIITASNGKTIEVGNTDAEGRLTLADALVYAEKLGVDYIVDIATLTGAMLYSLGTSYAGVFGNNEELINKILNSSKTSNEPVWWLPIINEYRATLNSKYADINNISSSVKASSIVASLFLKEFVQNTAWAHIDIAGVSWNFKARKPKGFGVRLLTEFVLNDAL
In words: P. falciparum M17LAP inhibitors, primary screen, biochemical, fluorogenic H-Leu-NHMec substrate, 1536-well (AID 1619). The format is functional.

The target of assay [29] is T2, Aminopeptidase N (Plasmodium falciparum FcB1/Columbia, UniProt O96935).
T2 sequence (O96935 whole entry): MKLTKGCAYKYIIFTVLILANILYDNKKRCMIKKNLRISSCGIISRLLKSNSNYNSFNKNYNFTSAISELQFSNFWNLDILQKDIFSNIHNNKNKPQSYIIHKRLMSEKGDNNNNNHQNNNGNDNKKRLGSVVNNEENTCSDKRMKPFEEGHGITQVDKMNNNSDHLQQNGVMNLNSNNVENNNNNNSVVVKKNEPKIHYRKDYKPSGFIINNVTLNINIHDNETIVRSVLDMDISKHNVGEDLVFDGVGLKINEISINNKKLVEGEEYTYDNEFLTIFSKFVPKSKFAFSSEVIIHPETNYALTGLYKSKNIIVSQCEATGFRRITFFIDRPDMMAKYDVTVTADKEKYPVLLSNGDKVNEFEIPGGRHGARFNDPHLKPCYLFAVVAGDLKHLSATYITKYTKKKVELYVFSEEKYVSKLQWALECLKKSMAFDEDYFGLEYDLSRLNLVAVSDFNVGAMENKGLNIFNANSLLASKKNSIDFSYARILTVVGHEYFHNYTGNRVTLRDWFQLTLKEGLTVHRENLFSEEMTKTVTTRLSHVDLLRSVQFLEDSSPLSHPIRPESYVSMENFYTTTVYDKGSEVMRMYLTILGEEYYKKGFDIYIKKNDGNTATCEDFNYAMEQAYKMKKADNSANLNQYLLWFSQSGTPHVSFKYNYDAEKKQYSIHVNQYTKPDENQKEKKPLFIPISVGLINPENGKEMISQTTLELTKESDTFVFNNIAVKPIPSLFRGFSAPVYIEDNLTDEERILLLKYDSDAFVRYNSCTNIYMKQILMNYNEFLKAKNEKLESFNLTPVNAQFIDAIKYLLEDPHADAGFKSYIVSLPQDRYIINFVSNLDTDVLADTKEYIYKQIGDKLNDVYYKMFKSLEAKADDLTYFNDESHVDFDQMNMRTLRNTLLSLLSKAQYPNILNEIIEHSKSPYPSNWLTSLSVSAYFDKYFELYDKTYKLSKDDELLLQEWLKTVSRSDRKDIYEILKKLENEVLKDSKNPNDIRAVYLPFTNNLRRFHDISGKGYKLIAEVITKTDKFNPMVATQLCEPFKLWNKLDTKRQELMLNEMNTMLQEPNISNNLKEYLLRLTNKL
In words: malaria alanyl aminopeptidase activity blockers – biochemical, fluorogenic H-Leu-NHMec substrate, 1536-well (AID 1445). Also on record: species or system Plasmodium falciparum 3D7, 3D7.

The target of assay [30] is T3, Heat shock factor protein 1 (Mus musculus, UniProt P38532).
T3 sequence (P38532 whole entry): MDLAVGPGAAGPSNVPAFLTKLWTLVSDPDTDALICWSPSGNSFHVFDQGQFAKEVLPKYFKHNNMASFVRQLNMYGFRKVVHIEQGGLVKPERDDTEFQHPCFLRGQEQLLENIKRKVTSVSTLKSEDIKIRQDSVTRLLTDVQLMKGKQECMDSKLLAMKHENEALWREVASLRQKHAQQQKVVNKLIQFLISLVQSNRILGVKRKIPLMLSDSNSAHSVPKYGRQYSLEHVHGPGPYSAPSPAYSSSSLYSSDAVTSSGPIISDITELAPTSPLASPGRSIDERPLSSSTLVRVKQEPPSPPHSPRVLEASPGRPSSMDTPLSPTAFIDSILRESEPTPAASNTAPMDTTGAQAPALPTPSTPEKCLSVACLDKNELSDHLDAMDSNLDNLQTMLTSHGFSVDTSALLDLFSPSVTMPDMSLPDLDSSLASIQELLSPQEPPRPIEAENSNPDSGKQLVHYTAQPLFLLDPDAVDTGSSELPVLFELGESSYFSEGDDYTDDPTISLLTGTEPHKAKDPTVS
In words: decrease of HSF1-responsive luciferase luminescence – cell-based, NIH3T3, dose retest, confirmation (AID 2382).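 Note: NIH3T3 fibroblasts with HSF1-driven luciferase reporter stressed by proteasome inhibitor MG132; luminescence from HSF1-driven luciferase expression after 8 hours of MG132 stress.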 The format is functional.

The target in assay [31] is Albumin (Bos taurus, UniProt P02769). In words: Counterscreen for inhibitors of T-cell receptor (TCR)-CD3 interaction: Fluorescence-based biochemical high throughput dose response assay to identify inhibitors of T-cell receptor (TCR)-CD3 interaction using a TAMRA-labeled BSA probe. The assay is classed as functional. A general note: A counterscreen serves to expose hits that act by an unwanted route or on another target.

A short description of assay [32]: cytotoxicity in MITF-independent A375 cells – cell-based, CellTiter-Glo luminescence, dry powder, set 4, counter-screen for MITF inhibitor project, dose response (AID 624364).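 Note: A375 melanoma cells are MITF independent so this is a counter screen.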 Particulars: A-375. The assay is classed as functional.
Assay [33] can be described thus: viability loss in MITF-independent A375 cells – cell-based, CellTiter-Glo luminescence, dry powder, set 2, counter-screen for MITF inhibitor project, dose response (AID 624489).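 Note: actives are compounds lowering A375 viability meaning general cytotoxicity.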 The assay is classed as functional. Conditions: A-375.

SMILES strings stand for the structures. Activity calls are given as the source filed them. A value given as a limit tells only on which side of the number the result lay.

As usually defined, the IC50 is the concentration that inhibits the measured activity by half. The AC50 is the concentration at which the activity in the assay is half-maximal. For orientation: EC50 means the concentration at which the effect is half-maximal.

Turning to `CCCCOc1ccc(C(=O)C2=C(O)C(=O)N(Cc3cccnc3)C2c2ccncc2)c(C)c1` (centres undefined), the values for the IC50 in assay [1] and in assay [2] were 4.21 µM (active) and > 138 µM (inactive), respectively.

Regarding `O=c1ccc2cc(O[C@@H]3O[C@H](CO)[C@@H](O)[C@H](O)[C@H]3O)c(O)cc2o1`, the AC50 in assay [3] is 1.72 µM (active).

Regarding `N#C[C@@H]1[C@H](c2ccc(C#Cc3ccccc3F)cc2)[C@@H](CO)N1C(=O)C1CCC1`, the AC50 was 31.2 µM (active) in [4], 31.5 µM (active) in assay [5], 29.9 µM (active) in [6] and 22.5 µM (active) in [7].

For `C[C@@H]1CN([C@H](C)CO)C(=O)c2c(c3ccccc3n2C)-c2ccccc2CO[C@@H]1CN(C)C(=O)[C@H](C)c1ccccc1`, the concentration at half-maximal activity (AC50) in assay [8] is 1.66 µM (active); in assay [9] it was 45.5 µM (active); in assay [10], 1.39 µM (active); in assay [11] it was 1.1 µM (active); in assay [12], 1.33 µM (active).

As for `O=C(CCl)c1ccc(Cl)cc1Cl`, the IC50 in [13] was 0.514 µM (active); in assay [14] it was 1.25 µM (active); in assay [15], 4.3 µM (active); in assay [16], 6.3 µM (inactive); in assay [17], 2.98 µM (active); in [18] it was 0.53 µM (active). Besides, the IC50 in assay [19] was > 10 µM (inactive); in [20], 8.52 µM (inactive); in [21] it was 2.07 µM (active); in assay [22], 1.1 µM (active).

As to `COc1cccc(-c2ccc3c(c2)[C@H]2[C@H](CCN2S(=O)(=O)c2ccccc2F)[C@@H](CO)N3)c1`, the AC50 in assay [23] is 3.92 µM (active); in assay [24] it was 19.1 µM (active); in assay [25], 31.4 µM (active); in assay [26], 21.9 µM (active).

Consider `CCCNC[C@@H]1[C@@H](c2ccc(C3=CCCC3)cc2)[C@@H](CO)N1C(=O)C1CCCC1`, for which the AC50 in [10] is 4 µM (active); in [27], 32.4 µM (active).

As to `CC/C(NNC(=O)c1ccccc1O)=C1/C(=O)NC(=O)N(Cc2ccccc2)C1=O`, the 50% inhibitory concentration (IC50) is 47.3 µM (active) in [28], 7.8 µM (active) in assay [29] and > 94.1 µM (inactive) in assay [31]. The EC50 in assay [30] was 30.2 µM (active).

As to `O=C(NC1=C(c2ccc(Oc3ccccc3)cc2)C(=O)c2ccccc2C1=O)c1ccccc1`, the AC50 in assay [32] and in assay [33] was > 70 µM (inactive) each time.
